# Reference: US6242199A, “Assays for growth hormone secretagogue receptors” (Merck & Co., Inc., priority 1998, dated 2001)
# Tested on: swine Type II GHSR
# Assay: Aequorin bioluminescence assay in Xenopus oocytes, swine Type II GHSR
# Type: cell-based
# Conditions: swine Type II-derived cRNA truncated in TM-6
# Procedure: Xenopus laevis oocytes were isolated and injected using standard methods previously described by Arena, et. al. 1991, Mol. Pharmacol. 40, 368-374, which is hereby incorporated by reference. Adult female Xenopus Laevis frogs (purchased from Xenopus One, Ann Arbor, Mich.) were anesthetized with 0.17% tricaine methanesulfonate and the ovaries were surgically removed and placed in a 60 mm culture dish (Falcon) containing OR-2 medium without calcium (82.5 mM NaCl, 2 mM KCl, 2.5 mM sodium pyruvate, 1 mM MgCl2, 100 μ/ml penicillin, 1 mg/ml streptomycin, 5 mM HEPES, pH=7.5; ND-96 from Specialty Media, NJ). Ovarian lobes were broken open, rinsed several times, and oocytes were released from their sacs by collagenase A digestion (Boehringer-Mannheim; 0.2% for 2-3 hours at 18° C.) in calcium-free OR-2. […]
# The ABA requires injection of library pool cRNA (25 ng/egg for pool sizes of 500 to 10,000) with aequorin cRNA (2 ng/egg) supplemented with the G-protein alpha subunit Gα11 (2 ng/egg). […] Polymerase chain reaction (PCR) was utilized to generate a DNA fragment corresponding to the open reading frame (ORF) of the aequorin cDNA with an optimized Kosak translational initiation sequence (Inouye, S. et. al., 1985, Proc. Natl. Acad. Sci. USA 82:3154-3158). […]
compound,measurement,value
"CC(C)(N)C(=O)N[C@H](COCc1ccccc1)C(=O)N1CCC2(CC1)CN(S(C)(=O)=O)c1ccccc12 [Compound A, (N-[1(R)-[1,2-dihydro-1-methanesulfonlylspiro[3H-indole-3,4'-piperidin]-1'-yl)carbonyl]-2-(phenylmethyloxy)-ethyl]-2-amino-2-methyl-propanamide]",response (in words),failed to give a response
